Tests used:
Assay in all cases: relative viability (nuclei count vs DMSO), 5 days (fraction); higher = more cells survive
Gemcitabine = compound: Nc1ccn([C@@H]2O[C@H](CO)[C@@H](O)C2(F)F)c(=O)n1 [Gemcitabine]
In short: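 Viability was read as treated-well nuclei divided by vehicle-well nuclei, using the median across plates. Lung cancer cell lines in 1536-well plates were kept overnight at 37 °C, pinned with five √10-spaced library-drug doses, and after 5 days were Hoechst-stained, imaged at 4× and counted in MetaXpress. Plates passed only with control CV below 25% and at least one doubling.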

Gemcitabine + Trametinib = compound: Nc1ccn([C@@H]2O[C@H](CO)[C@@H](O)C2(F)F)c(=O)n1 [Gemcitabine] + CC(=O)Nc1cccc(-n2c(=O)n(C3CC3)c(=O)c3c(Nc4ccc(I)cc4F)n(C)c(=O)c(C)c32)c1 [Trametinib] (partner 0.02 µM)
In short: (§1)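 Each reported value is a median over duplicate plates. It expresses relative viability: treated-well nuclei count divided by vehicle-well nuclei count. Lung cancer cell lines in 1536-well plates were dosed by pin tool a day after seeding, alone with one drug or with a fixed anchor-drug dose plus five library-drug doses (not always all listed) in √10 steps, and nuclei were counted after 5 days.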

Gemcitabine + OSI-027 = compound: Nc1ccn([C@@H]2O[C@H](CO)[C@@H](O)C2(F)F)c(=O)n1 [Gemcitabine] + COc1cccc2cc(-c3nc([C@H]4CC[C@H](C(=O)O)CC4)n4ncnc(N)c34)[nH]c12 [OSI-027] (partner 0.5 µM)
In short: as §1

Gemcitabine + Phenformin = compound: Nc1ccn([C@@H]2O[C@H](CO)[C@@H](O)C2(F)F)c(=O)n1 [Gemcitabine] + N=C(N)NC(=N)NCCc1ccccc1 [Phenformin] (partner 250 µM)
In short: as §1

NCI-H2347
relative viability (Gemcitabine; 0.001 µM): 1 | relative viability (Gemcitabine; 0.003162 µM): 0.915 | relative viability (Gemcitabine; 0.01 µM): 0.68 | relative viability (Gemcitabine; 0.03162 µM): 0.492 | relative viability (Gemcitabine; 0.1 µM): 0.381 | relative viability (Gemcitabine + Trametinib; first compound 0.001 µM): 0.305 | relative viability (Gemcitabine + Trametinib; first compound 0.003162 µM): 0.255 | relative viability (Gemcitabine + Trametinib; first compound 0.01 µM): 0.276 | relative viability (Gemcitabine + Trametinib; first compound 0.03162 µM): 0.258 | relative viability (Gemcitabine + Trametinib; first compound 0.1 µM): 0.2 | relative viability (Gemcitabine + OSI-027; first compound 0.001 µM): 0.434 | relative viability (Gemcitabine + OSI-027; first compound 0.003162 µM): 0.431 | relative viability (Gemcitabine + OSI-027; first compound 0.01 µM): 0.307 | relative viability (Gemcitabine + OSI-027; first compound 0.03162 µM): 0.242 | relative viability (Gemcitabine + OSI-027; first compound 0.1 µM): 0.24 | relative viability (Gemcitabine + Phenformin; first compound 0.001 µM): 0.381 | relative viability (Gemcitabine + Phenformin; first compound 0.003162 µM): 0.346 | relative viability (Gemcitabine + Phenformin; first compound 0.01 µM): 0.304 | relative viability (Gemcitabine + Phenformin; first compound 0.03162 µM): 0.275 | relative viability (Gemcitabine + Phenformin; first compound 0.1 µM): 0.221

NCI-H2405
relative viability (Gemcitabine; 0.001 µM): 0.995 | relative viability (Gemcitabine; 0.003162 µM): 0.66 | relative viability (Gemcitabine; 0.01 µM): 0.533 | relative viability (Gemcitabine; 0.03162 µM): 0.268 | relative viability (Gemcitabine; 0.1 µM): 0.211 | relative viability (Gemcitabine + Trametinib; first compound 0.001 µM): 0.689 | relative viability (Gemcitabine + Trametinib; first compound 0.003162 µM): 0.67 | relative viability (Gemcitabine + Trametinib; first compound 0.01 µM): 0.457 | relative viability (Gemcitabine + Trametinib; first compound 0.03162 µM): 0.211 | relative viability (Gemcitabine + Trametinib; first compound 0.1 µM): 0.211 | relative viability (Gemcitabine + OSI-027; first compound 0.001 µM): 0.641 | relative viability (Gemcitabine + OSI-027; first compound 0.003162 µM): 0.314 | relative viability (Gemcitabine + OSI-027; first compound 0.01 µM): 0.32 | relative viability (Gemcitabine + OSI-027; first compound 0.03162 µM): 0.211 | relative viability (Gemcitabine + OSI-027; first compound 0.1 µM): 0.196 | relative viability (Gemcitabine + Phenformin; first compound 0.001 µM): 0.405 | relative viability (Gemcitabine + Phenformin; first compound 0.003162 µM): 0.26 | relative viability (Gemcitabine + Phenformin; first compound 0.01 µM): 0.247 | relative viability (Gemcitabine + Phenformin; first compound 0.03162 µM): 0.192 | relative viability (Gemcitabine + Phenformin; first compound 0.1 µM): 0.173

NCI-H3122
relative viability (Gemcitabine; 0.001 µM): 0.975 | relative viability (Gemcitabine; 0.003162 µM): 1.04 | relative viability (Gemcitabine; 0.01 µM): 0.913 | relative viability (Gemcitabine; 0.03162 µM): 0.214 | relative viability (Gemcitabine; 0.1 µM): 0.14 | relative viability (Gemcitabine + Trametinib; first compound 0.001 µM): 0.219 | relative viability (Gemcitabine + Trametinib; first compound 0.003162 µM): 0.237 | relative viability (Gemcitabine + Trametinib; first compound 0.01 µM): 0.174 | relative viability (Gemcitabine + Trametinib; first compound 0.03162 µM): 0.141 | relative viability (Gemcitabine + Trametinib; first compound 0.1 µM): 0.0965 | relative viability (Gemcitabine + OSI-027; first compound 0.001 µM): 1.05 | relative viability (Gemcitabine + OSI-027; first compound 0.003162 µM): 0.918 | relative viability (Gemcitabine + OSI-027; first compound 0.01 µM): 0.246 | relative viability (Gemcitabine + OSI-027; first compound 0.03162 µM): 0.133 | relative viability (Gemcitabine + OSI-027; first compound 0.1 µM): 0.112 | relative viability (Gemcitabine + Phenformin; first compound 0.001 µM): 0.436 | relative viability (Gemcitabine + Phenformin; first compound 0.003162 µM): 0.322 | relative viability (Gemcitabine + Phenformin; first compound 0.01 µM): 0.165 | relative viability (Gemcitabine + Phenformin; first compound 0.03162 µM): 0.13 | relative viability (Gemcitabine + Phenformin; first compound 0.1 µM): 0.121

PC-3 [JPC-3]
relative viability (Gemcitabine; 0.001 µM): 1.1 | relative viability (Gemcitabine; 0.003162 µM): 0.779 | relative viability (Gemcitabine; 0.01 µM): 0.771 | relative viability (Gemcitabine; 0.03162 µM): 0.36 | relative viability (Gemcitabine; 0.1 µM): 0.373 | relative viability (Gemcitabine + Trametinib; first compound 0.001 µM): 0.73 | relative viability (Gemcitabine + Trametinib; first compound 0.003162 µM): 0.424 | relative viability (Gemcitabine + Trametinib; first compound 0.01 µM): 0.469 | relative viability (Gemcitabine + Trametinib; first compound 0.03162 µM): 0.426 | relative viability (Gemcitabine + Trametinib; first compound 0.1 µM): 0.417 | relative viability (Gemcitabine + OSI-027; first compound 0.001 µM): 0.799 | relative viability (Gemcitabine + OSI-027; first compound 0.003162 µM): 0.656 | relative viability (Gemcitabine + OSI-027; first compound 0.01 µM): 0.378 | relative viability (Gemcitabine + OSI-027; first compound 0.03162 µM): 0.259 | relative viability (Gemcitabine + OSI-027; first compound 0.1 µM): 0.257 | relative viability (Gemcitabine + Phenformin; first compound 0.001 µM): 0.503 | relative viability (Gemcitabine + Phenformin; first compound 0.003162 µM): 0.446 | relative viability (Gemcitabine + Phenformin; first compound 0.01 µM): 0.365 | relative viability (Gemcitabine + Phenformin; first compound 0.03162 µM): 0.325 | relative viability (Gemcitabine + Phenformin; first compound 0.1 µM): 0.287

PC-14
relative viability (Gemcitabine; 0.001 µM): 0.97 | relative viability (Gemcitabine; 0.003162 µM): 0.407 | relative viability (Gemcitabine; 0.01 µM): 0.151 | relative viability (Gemcitabine; 0.03162 µM): 0.0526 | relative viability (Gemcitabine; 0.1 µM): 0.0522 | relative viability (Gemcitabine + Trametinib; first compound 0.001 µM): 0.885 | relative viability (Gemcitabine + Trametinib; first compound 0.003162 µM): 0.279 | relative viability (Gemcitabine + Trametinib; first compound 0.01 µM): 0.037 | relative viability (Gemcitabine + Trametinib; first compound 0.03162 µM): 0.0374 | relative viability (Gemcitabine + Trametinib; first compound 0.1 µM): 0.0267 | relative viability (Gemcitabine + OSI-027; first compound 0.001 µM): 0.595 | relative viability (Gemcitabine + OSI-027; first compound 0.003162 µM): 0.156 | relative viability (Gemcitabine + OSI-027; first compound 0.01 µM): 0.0375 | relative viability (Gemcitabine + OSI-027; first compound 0.03162 µM): 0.0459 | relative viability (Gemcitabine + OSI-027; first compound 0.1 µM): 0.0298 | relative viability (Gemcitabine + Phenformin; first compound 0.001 µM): 0.558 | relative viability (Gemcitabine + Phenformin; first compound 0.003162 µM): 0.113 | relative viability (Gemcitabine + Phenformin; first compound 0.01 µM): 0.0527 | relative viability (Gemcitabine + Phenformin; first compound 0.03162 µM): 0.0312 | relative viability (Gemcitabine + Phenformin; first compound 0.1 µM): 0.0491

— the supplement of paper PMC10307832
